Measurements as given in patent US20150126516A1, “PIPERIDINE COMPOUND AND ITS USE IN PEST CONTROL” (Sumitomo Chemical Company, Limited, priority 2012, published 2015).
Like-named read-outs stand apart in the source and are kept apart here.

Legend:
[1] = system: summer fruit tortrix moths (Adoxophyes orana); experiment: Controlling effect on summer fruit tortrix moth, treated artificial feed; assay type: in vivo; details: 168 h
Method: Liquid medicines for a test were prepared by diluting each formulation of the compounds 1, 3, 6, 10, 12, 16, 17, 20, 21, 23, 26 to 29, 33, 38, and 42 of the present invention, which were obtained from Formulation Example 5, with water so that the concentration of the active ingredients becomes 500 ppm.
Silk Mates 2S (artificial feed: Nosan Corporation), which were sliced in a thickness of 2 mm, were placed on the bottom of polyethylene cups and 1 mL of each of the above-described liquid medicines for a test was irrigated thereto.
After air-drying, 30 first-instar larvae of summer fruit tortrix moths (Adoxophyes orana) were released in each cup, which was then covered with a lid. The cups were stored at 25° C., the number of surviving insects was counted after 7 days, and the mortality rate was obtained using the following formula.
(§1) Mortality(%)=(the number of dead insects/the number of insects provided for a test)×100

[2] = system: diamondback moths; experiment: Controlling effect on diamondback moth, spray on cabbages; assay type: in vivo; details: Plutella xylostella, 120 h, read-out: Mortality rate
Method: Spray solutions for a test were prepared by diluting each formulation of the compounds 1, 11 to 14, 16, 17, 36, and 38 of the present invention, which were obtained from Formulation Example 5, with water so that the concentration of the active ingredients becomes 500 ppm.
Meanwhile, each of the above-described liquid solutions for the test was sprayed on cabbages in a third-leaf stage which were planted in polyethylene cups at a ratio of 20 mL/cup. After the liquid solutions were dried, the stems and leaves were cut and accommodated in each 50 mL cup. 5 second-instar larvae of diamondback moths were released in each cup, which was then covered with a lid. The cups were stored at 25° C., the number of surviving insects was counted after 5 days, and the mortality rate was obtained using the following formula.
as §1

[3] = system: cotton aphids; experiment: Controlling effect on cotton aphid, spray on inoculated cucumber seedlings; assay type: in vivo, Aphis gossypii; details: 144 h; 500 ppm active ingredient, 20 ml sprayed on cucumber seedlings with about 30 cotton aphids, 6 days after spraying
[4] = system: common houseflies; experiment: Controlling effect on common housefly, treated filter paper with sucrose bait; assay type: in vivo; details: Musca domestica, 24 h, read-out: Mortality rate
Method: Liquid medicines for a test were prepared by diluting a formulation of the compound 28 of the present invention, which was obtained from Formulation Example 5, with water so that the concentration of the active ingredients becomes 500 ppm.
A filter paper having a diameter of 5.5 cm was spread on the bottom of a polyethylene cup having the same size as that of the filter paper, 0.7 ml ml of any one of the above-described liquid medicines for a test was added dropwise onto the filter paper, and 30 mg of sucrose was uniformly put therein as bait. 10 female imagoes of common houseflies were released in the polyethylene cup, which was then covered with a lid. The number of live and dead common houseflies were checked after 24 hours and the mortality rate was obtained using the following formula.
Mortality(%)=(the number of dead insectse/the number of insects provided for a test)×100

[5] = 500 ppm, 1 mL on artificial feed, 30 first-instar larvae, 25° C., after 7 days, read-out: Mortality
[6] = 500 ppm, 20 mL/cup sprayed on cabbages, 5 second-instar larvae, 25° C., after 5 days

O=C(NCC1(c2ccccc2)CCN(CCc2ccccc2C(F)(F)F)CC1)c1cc(Cl)nc(Cl)c1 [compound 1, 2,6-dichloro-N-((4-phenyl-1-(2-(trifluoromethyl)phenethyl)piperidin-4-yl)methyl)isonicotinamide]
mortality at 500 ppm [1]: ≥ 90% | mortality at 500 ppm [2]: ≥ 80%

O=C(NCC1(c2ccccc2)CCN(CCc2ccccc2)CC1)c1ccnc(Cl)c1 [compound 2, 2-chloro-N-((1-phenethyl-4-phenylpiperidin-4-yl)methyl)isonicotinamide]
pest or weed control at 500 ppm [3]: ≥ 90%

O=C(NCC1(c2ccccc2)CCN(CCc2ccccc2C(F)(F)F)CC1)c1ccnc(Cl)c1 [compound 3, 2-chloro-N-((4-phenyl-1-(2-(trifluoromethyl)phenethyl)piperidin-4-yl)methyl)isonicotinamide]
pest or weed control at 500 ppm [3]: ≥ 90% | mortality at 500 ppm [1]: ≥ 90%

O=C(NCC1(c2ccccc2)CCN(CCc2ccccc2)CC1)c1ccc(Cl)cc1 [compound 6, 4-chloro-N-((1-phenethyl-4-phenylpiperidin-4-yl)methyl)benzamide]
mortality at 500 ppm [1, 5]: ≥ 90%

O=C(NCC1(c2ccccc2)CCN(CCc2ccc(C(F)(F)F)cc2)CC1)c1ccnc(Cl)c1 [compound 10, 2-chloro-N-((4-phenyl-1-(4-(trifluoromethyl)phenethyl)piperidin-4-yl)methyl)isonicotinamide]
mortality at 500 ppm [1, 5]: ≥ 90%

O=C(NCC1(c2ccccc2)CCN(CCc2ccccc2C(F)(F)F)CC1)c1ccccc1 [compound 11, N-((4-phenyl-1-(2-(trifluoromethyl)phenethyl)piperidin-4-yl)methyl)benzamide]
pest or weed control at 500 ppm [3]: ≥ 90% | mortality at 500 ppm [2]: ≥ 80%

O=C(NCC1(c2ccccc2)CCN(CCc2ccccc2C(F)(F)F)CC1)c1ccccc1Cl [compound 12, 2-chloro-N-((4-phenyl-1-(2-(trifluoromethyl)phenethyl)piperidin-4-yl)methyl)benzamide]
pest or weed control at 500 ppm [3]: ≥ 90% | mortality at 500 ppm [1]: ≥ 90% | mortality at 500 ppm [2]: ≥ 80%

O=C(NCC1(c2ccccc2)CCN(CCc2ccccc2C(F)(F)F)CC1)c1cccc(Cl)c1 [compound 13, 3-chloro-N-((4-phenyl-1-(2-(trifluoromethyl)phenethyl)piperidin-4-yl)methyl)benzamide]
mortality at 500 ppm [2, 6]: ≥ 80%

O=C(NCC1(c2ccccc2)CCN(CCc2ccccc2C(F)(F)F)CC1)c1ccc(Cl)cc1 [compound 14, 4-chloro-N-((4-phenyl-1-(2-(trifluoromethyl)phenethyl)piperidin-4-yl)methyl)benzamide]
mortality at 500 ppm [2, 6]: ≥ 80%

O=C(NCC1(c2ccccc2)CCN(CCc2ccccc2C(F)(F)F)CC1)c1ccccn1 [compound 16, N-((4-phenyl-1-(2-(trifluoromethyl)phenethyl)piperidin-4-yl)methyl)picolinamide]
pest or weed control at 500 ppm [3]: ≥ 90% | mortality at 500 ppm [1]: ≥ 90% | mortality at 500 ppm [2]: ≥ 80%

O=C(NCC1(c2ccccc2)CCN(CCc2ccccc2C(F)(F)F)CC1)c1cc(Cl)cc(Cl)c1 [compound 17, 3,5-dichloro-N-((4-phenyl-1-(2-(trifluoromethyl)phenethyl)piperidin-4-yl)methyl)benzamide]
mortality at 500 ppm [1, 5]: ≥ 90% | mortality at 500 ppm [2, 6]: ≥ 80%

O=C(NCC1(c2ccccc2)CCN(CCc2ccccc2)CC1)c1cc(Cl)nc(Cl)c1 [compound 20, 2,6-dichloro-N-((1-phenethyl-4-phenylpiperidin-4-yl)methyl)isonicotinamide]
pest or weed control at 500 ppm [3]: ≥ 90% | mortality at 500 ppm [1]: ≥ 90%

O=C(NCC1(c2ccccc2)CCN(CCc2ccccc2C(F)(F)F)CC1)c1ncccc1Cl [compound 21, 3-chloro-N-((4-phenyl-1-(2-(trifluoromethyl)phenethyl)piperidin-4-yl)methyl)picolinamide]
pest or weed control at 500 ppm [3]: ≥ 90% | mortality at 500 ppm [1]: ≥ 90%

O=C(NCC1(c2cccc(Cl)c2)CCN(CCc2ccccc2C(F)(F)F)CC1)c1ccccc1Cl [compound 23, 2-chloro-N-((4-(3-chlorophenyl)-1-(2-(trifluoromethyl)phenethyl)piperidin-4-yl)methyl)benzamide]
mortality at 500 ppm [1, 5]: ≥ 90%

O=C(NCC1(c2ccccc2)CCN(CCc2ccccc2C(F)(F)F)CC1)c1cccnc1Cl [compound 24, 2-chloro-N-((4-phenyl-1-(2-(trifluoromethyl)phenethyl)piperidin-4-yl)methyl)nicotinamide]
pest or weed control at 500 ppm [3]: ≥ 90%

O=C(NCC1(c2ccccc2Cl)CCN(CCc2ccccc2C(F)(F)F)CC1)c1ccccc1Cl [compound 25, 2-chloro-N-((4-(2-chlorophenyl)-1-(2-(trifluoromethyl)phenethyl)piperidin-4-yl)methyl)benzamide]
pest or weed control at 500 ppm [3]: ≥ 90%

COc1ccccc1CCN1CCC(CNC(=O)c2cc(Cl)nc(Cl)c2)(c2ccccc2)CC1 [compound 26, 2,6-dichloro-N-((1-(2-methoxyphenethyl)-4-phenylpiperidin-4-yl)methyl)isonicotinamide]
pest or weed control at 500 ppm [3]: ≥ 90% | mortality at 500 ppm [1]: ≥ 90%

Cc1ccccc1CCN1CCC(CNC(=O)c2cc(Cl)nc(Cl)c2)(c2ccccc2)CC1 [compound 27, 2,6-dichloro-N-((1-(2-methylphenethyl)-4-phenylpiperidin-4-yl)methyl)isonicotinamide]
pest or weed control at 500 ppm [3]: ≥ 90% | mortality at 500 ppm [1]: ≥ 90%

COc1ccccc1C(=O)NCC1(c2ccccc2)CCN(CCc2ccccc2C(F)(F)F)CC1 [compound 28, 2-methoxy-N-((4-phenyl-1-(2-(trifluoromethyl)phenethyl)piperidin-4-yl)methyl)benzamide]
pest or weed control at 500 ppm [3]: ≥ 90% | mortality at 500 ppm [1]: ≥ 90% | mortality at 500 ppm [4]: ≥ 70%

O=C(NCC1(c2ccccc2)CCN(CCc2ccccc2Cl)CC1)c1cc(Cl)nc(Cl)c1 [compound 29, 2,6-dichloro-N-((1-(2-chlorophenethyl)-4-phenylpiperidin-4-yl)methyl)isonicotinamide]
pest or weed control at 500 ppm [3]: ≥ 90% | mortality at 500 ppm [1]: ≥ 90%

O=C(NCC1(c2ccccc2)CCN(CCc2cccc(Cl)c2Cl)CC1)c1cc(Cl)nc(Cl)c1 [compound 33, 2,6-dichloro-N-((1-(2,3-dichlorophenethyl)-4-phenylpiperidin-4-yl)methyl)isonicotinamide]
mortality at 500 ppm [1, 5]: ≥ 90%

O=C(NCC1(c2ccccc2)CCN(CCc2ccccc2C(F)(F)F)CC1)c1c(F)cc(F)cc1F [compound 36, 2,4,6-trifluoro-N-((4-phenyl-1-(2-(trifluoromethyl)phenethyl)piperidin-4-yl)methyl)benzamide]
pest or weed control at 500 ppm [3]: ≥ 90% | mortality at 500 ppm [2]: ≥ 80%

O=C(NCC1(c2ccccn2)CCN(CCc2ccccc2C(F)(F)F)CC1)c1cc(Cl)nc(Cl)c1 [compound 38, 2,6-dichloro-N-((4-(pyridin-2-yl)-1-(2-(trifluoromethyl)phenethyl)piperidin-4-yl)methyl)isonicotinamide]
pest or weed control at 500 ppm [3]: ≥ 90% | mortality at 500 ppm [1]: ≥ 90% | mortality at 500 ppm [2]: ≥ 80%

O=C(NCC1(c2cccnc2)CCN(CCc2ccccc2C(F)(F)F)CC1)c1cc(Cl)nc(Cl)c1 [compound 39, 2,6-dichloro-N-((4-(pyridin-3-yl)-1-(2-(trifluoromethyl)phenethyl)piperidin-4-yl)methyl)isonicotinamide]
pest or weed control at 500 ppm [3]: ≥ 90%

O=C(NCC1(c2ncccc2F)CCN(CCc2ccccc2C(F)(F)F)CC1)c1ccnc(Cl)c1 [compound 40, 2-chloro-N-((4-(3-fluoropyridin-2-yl)-1-(2-(trifluoromethyl)phenethyl)piperidin-4-yl)methyl)isonicotinamide]
pest or weed control at 500 ppm [3]: ≥ 90%

O=C(NCC1(c2ccccn2)CCN(CCc2ccccc2C(F)(F)F)CC1)c1ccccc1Cl [compound 41, 2-chloro-N-((4-(pyridin-2-yl)-1-(2-(trifluoromethyl)phenethyl)piperidin-4-yl)methyl)benzamide]
pest or weed control at 500 ppm [3]: ≥ 90%

COc1ccccc1C(=O)NCC1(c2ccccn2)CCN(CCc2ccccc2C(F)(F)F)CC1 [compound 42, 2-methoxy-N-((4-(pyridin-2-yl)-1-(2-(trifluoromethyl)phenethyl)piperidin-4-yl)methyl)benzamide]
pest or weed control at 500 ppm [3]: ≥ 90% | mortality at 500 ppm [1]: ≥ 90%
